Earlier results as cited in patent US4866036A, “Dipeptidyl 5-0,6-0-acyl-2-amino-2-deoxy-D-glucofuranose compositions and methods of use in aids-immunocompromised human hosts” (priority 1987, dated 1989).

Tests used:
[1] = human, in vivo
[2] = in vivo
[3] = human, in vivo; remark: listed apart in the source
[4] = biological target: HIV reverse transcriptase (Human immunodeficiency virus type 1 group M subtype B, UniProt P04585)
[5] = test system: reverse transcriptase in several retroviruses; details: in vitro

Molecule | clinical effect in AIDS or ARC patients [1] | toxicity / adverse effects in patients [3] | also measured
CO[C@H]1/C=C/O[C@@]2(C)Oc3c(C)c(O)c4c(c3C2=O)C2=NC3(CCN(CC(C)C)CC3)NC2=C(NC(=O)/C(C)=C\C=C\[C@H](C)[C@H](O)[C@@H](C)[C@@H](O)[C@@H](C)[C@H](OC(C)=O)[C@@H]1C)C4=O [Ansamycin, rifabutin] | some efficacy | – | –
Cc1cn([C@H]2C[C@H](N=[N+]=[N-])[C@@H](CO)O2)c(=O)[nH]c1=O [Azidothymidine, 3'-azido 3'-deoxythymidine] | – | – | half-life in the body [2]: relatively short half-life; penetration of the central nervous system [2]: effectively penetrates central nervous system
CC(C)(N1CC1C#N)N1CC1C(N)=O (centres unmarked) [Azimexon] | improvements in symptoms and immune function in patients with ARC but not AIDS | mild hemolysis | –
CC(C)(S)[C@@H](N)C(=O)O [D-Penicillamine, 3-mercapto-D-valine] | suppressed the virus | temporarily depressed T cell levels | –
O=C(O)P(=O)(O)O [Foscarnet, trisodium phosphonoformate] | – | serious side effects | HIV reverse transcriptase activity [4]: Inhibits HIV reverse transcriptase activity in vitro
CC(=O)Nc1ccc(C(=O)O)cc1.CC(=O)Nc1ccc(C(=O)O)cc1.CC(=O)Nc1ccc(C(=O)O)cc1.CC(O)CN(C)C.CC(O)CN(C)C.CC(O)CN(C)C.O=c1[nH]cnc2c1ncn2[C@@H]1O[C@H](CO)[C@@H](O)[C@H]1O [Inosine pranobex] | improve immune function in ARC patients | – | –
NC(=O)c1ncn([C@@H]2O[C@H](CO)[C@@H](O)[C@H]2O)n1 [Ribavirin, 1β-D ribofuranosyl 1,2,4-triazole 3-carboxamide] | inhibited viral replication and improved immune function | – | –
Cc1ccc(C(=O)Nc2ccc(S(=O)(=O)O)c3cc(S(=O)(=O)O)cc(S(=O)(=O)O)c23)cc1NC(=O)c1cccc(NC(=O)Nc2cccc(C(=O)Nc3cc(C(=O)Nc4ccc(S(=O)(=O)O)c5cc(S(=O)(=O)O)cc(S(=O)(=O)O)c45)ccc3C)c2)c1 [Suramin] | – | – | HIV reverse transcriptase activity [4]: Potent inhibitor
ammonium 21-tungsto-9 antimoniate [HPA 23] | no therapeutic benefit has been documented | – | reverse transcriptase in several retroviruses [5]: Inhibits reverse transcriptase; growth of HIV (HIV): some tendency to check the growth of HIV
α-Interferon | induced tumor regression in some AIDS related Kaposi's sarcoma cases | – | growth of HIV (HIV): Checks the growth of HIV in vitro
